Reference: patent publication US20230416239A1, “COMPOUNDS AND METHODS FOR TREATING A CYTOKINE-MEDIATED DISEASE” (CONSERVATOIRE NATIONAL DES ARTS ET MÉTIERS, priority 2020, published 2023)
Blank lines part the entries; values can stand above or below the molecule they belong to.

How the values were obtained:
[1] = target: IL-13 (Homo sapiens, UniProt P35225); test: Immunoassay binding test, IL-13; details: for IC50: IL-13 400 ng/ml, receptor 100 ng/ml, read-out: BINDING IL13 IC50
Protocol: (§1) Microtiter plates (96 wells) are covered with 100 μl of receptor per well, and incubated overnight at 4° C. The following day, after 2 washes in PBS/Tween20, the plates are saturated with 150 μl of PBS/BSA 2% per well, for 2 h at 37° C. Synthetic compounds are diluted in series (final concentrations: 100 to 0.78 μM) then a fixed amount of cytokine in PBS/BSA 1% is added to the compounds, in a final volume of 120 μl per well. […] The cytokine is diluted in series (six concentrations) in a final volume of 120 μl per well. […] The different mixtures are incubated for 2 h at 37° C. 100 μl of each mixture are then transferred to the microtiter plate, respecting the plate plan previously defined and incubated overnight at 4° C. After three washes, 100 μl of biotinylated anti-cytokine secondary antibody are added to each well, then incubated for 2 h at 37° C. After three washes, 100 μl of Avidin-HRP (1/500th dilution) are added and incubated for 30 minutes at 37° C. […] The plates are then read with a spectrophotometer at 450 nm, measuring the optical density for each well.
(§2) This binding test is carried out with different cytokines: TNFa, IL-4, IL-6 and IL-13. For IL-6, the incubation of molecules with the cytokine also requires the presence of IL-6Ra at a final concentration of 200 ng/ml.
(§3) The final concentrations used for each of the cytokines are presented below: […]

[2] = target: IL-6 (Homo sapiens, UniProt P05231); test: Immunoassay binding test, IL-6 (gp130 receptor, IL-6Ra present); details: IL-6Ra 200 ng/ml
Protocol: (§4) Microtiter plates (96 wells) are covered with 100 μl of receptor per well, and incubated overnight at 4° C. The following day, after 2 washes in PBS/Tween20, the plates are saturated with 150 μl of PBS/BSA 2% per well, for 2 h at 37° C. Synthetic compounds are diluted in series (final concentrations: 100 to 0.78 μM) then a fixed amount of cytokine in PBS/BSA 1% is added to the compounds, in a final volume of 120 μl per well. […] The cytokine is diluted in series (six concentrations) in a final volume of 120 μl per well. The cytokine is used in the absence of small molecule as well as the range of SPD304 as positive controls and the absence of cytokine and synthetic molecule as negative control. The different mixtures are incubated for 2 h at 37° C. 100 μl of each mixture are then transferred to the microtiter plate, respecting the plate plan previously defined and incubated overnight at 4° C. After three washes, 100 μl of biotinylated anti-cytokine secondary antibody are added to each well, then incubated for 2 h at 37° C. After three washes, 100 μl of Avidin-HRP (1/500th dilution) are added and incubated for 30 minutes at 37° C. […] The plates are then read with a spectrophotometer at 450 nm, measuring the optical density for each well.
as §2, §3

[3] = target: TNFα (Homo sapiens, UniProt P01375); test: Immunoassay binding test, TNFa; details: compounds 100 to 0.78 μM; TNFα 10 ng/ml, receptor 100 ng/ml; read-out: BINDING TNF IC50
Protocol: as §1, with “C.” for “C. Synthetic compounds are diluted in series (final concentrations: 100 to 0.78 μM) then a fixed amount of cytokine in PBS/BSA 1% is added to the compounds, in a final volume of 120 μl per well.”
as §2, §3

[4] = target: T1, IL-4 (Homo sapiens, UniProt P05112); test: Immunoassay binding test, IL-4; details: for IC50: IL-4 400 ng/ml, receptor 100 ng/ml, read-out: BINDING IL4 IC50
T1 sequence (P05112 25-153): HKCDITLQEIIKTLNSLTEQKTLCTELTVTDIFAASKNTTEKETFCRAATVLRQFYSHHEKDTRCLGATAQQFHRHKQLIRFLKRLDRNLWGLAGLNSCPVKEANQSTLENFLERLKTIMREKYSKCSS
Protocol: as §4, §2, §3

[5] = target: TNFa/TNFRI interaction (Homo sapiens, UniProt P01375); test: TNFa/TNFRI interaction displacement test; assay type: binding; details: for Displacement EC50 TNFa in presence of compound: Difference: Compound EC50 minus SPD304 EC50; for Displacement (%): compounds at 50 μM, human TNFRI 100 ng/ml;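 for Displacement EC50 TNFa in presence of compound: Difference: SPD304 reference at 20 µM final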
Protocol: Microtiter plates (96 wells) are covered with 100 μl per well of human TNFRI, at a concentration of 100 ng/ml, then incubated overnight at 4° C. The following day, after two washes in PBS/Tween20, the plates are saturated with 150 μl of PBS/BSA 2% for 2 h at 37° C.
100 μl of each mixture are then transferred to the microtiter plate, respecting the established plate plan and incubated overnight at 4° C.
After three washes, 100 μl of biotinylated anti-cytokine secondary antibody are added to each well and incubated for 2 h at 37° C. After three washes, 100 Avl Avidin-HRP (dilution 1/500th) are added and incubated for 30 minutes at 37° C. […] The plates are then read with a spectrophotometer at 450 nm, measuring the optical density (OD) for each well.

Sequence of TNFα (P01375 77-233 limits assumed, species assumed): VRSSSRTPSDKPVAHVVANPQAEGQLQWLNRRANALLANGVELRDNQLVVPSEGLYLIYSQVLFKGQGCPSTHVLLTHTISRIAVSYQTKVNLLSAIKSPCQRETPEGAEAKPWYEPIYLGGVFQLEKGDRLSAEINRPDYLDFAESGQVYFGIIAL
Sequence of TNFa/TNFRI interaction (P01375 77-233 limits assumed): as the sequence (P01375 77-233 limits assumed, species assumed) above
Sequence of IL-6 (P05231 30-212, species assumed): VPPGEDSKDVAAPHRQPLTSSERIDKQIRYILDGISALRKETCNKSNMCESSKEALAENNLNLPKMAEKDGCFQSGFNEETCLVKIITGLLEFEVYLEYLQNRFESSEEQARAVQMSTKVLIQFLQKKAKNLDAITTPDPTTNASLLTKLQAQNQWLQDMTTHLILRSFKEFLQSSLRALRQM
Sequence of IL-13 (P35225 25-146, species assumed): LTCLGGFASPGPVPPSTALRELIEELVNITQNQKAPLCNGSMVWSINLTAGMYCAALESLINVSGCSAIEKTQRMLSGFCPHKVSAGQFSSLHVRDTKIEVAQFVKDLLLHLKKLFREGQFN

Compound: O=S(=O)(c1ccccc1)n1cc(CN(Cc2ccccn2)CC2CCCN(C3CCCCC3)C2)c2ccccc21 (centres unmarked) [Compound 1]
BINDING IL13 % Neutra at 100 μM [1]: 94.6%
IC50 [1]: 23.5 µM
BINDING IL6 % Neutra at 100 μM [2]: 5.5%
IC50 [3]: 11.9 µM
BINDING IL4 % Neutra at 100 μM [4]: 97.5%
IC50 [4]: 4.1 µM
Displacement EC50 TNFa in presence of compound: Difference [5]: 9.1 ng/mL
Displacement (%) [5]: 178%

Compound: FC(F)(F)c1cccc(-n2cc(CN(Cc3ccccn3)CC3CCCN(C4CCCCC4)C3)c3ccccc32)c1 (centres unmarked) [Compound 2]
BINDING IL13 % Neutra at 100 μM [1]: 97.1%
IC50 [1]: 1.4 µM
BINDING IL6 % Neutra at 100 μM [2]: 2%
IC50 [3]: 19.9 µM
BINDING IL4 % Neutra at 100 μM [4]: 97.8%
IC50 [4]: 3.3 µM
Displacement EC50 TNFa in presence of compound: Difference [5]: 14.9 ng/mL
Displacement (%) [5]: 183%

Compound: O=S(=O)(c1ccccc1)n1cc(CN(Cc2cccnc2)CC2CCCN(C3CCCCC3)C2)c2ccccc21 (centres unmarked) [Compound 3]
BINDING IL13 % Neutra at 100 μM [1]: 96.9%
BINDING IL6 % Neutra at 100 μM [2]: 5%
IC50 [3]: 4.6 µM
BINDING IL4 % Neutra at 100 μM [4]: 96.4%
IC50 [4]: 6.6 µM
Displacement EC50 TNFa in presence of compound: Difference [5]: 7.4 ng/mL
Displacement (%) [5]: 196%

Compound: FC(F)(F)c1cccc(-n2cc(CN(Cc3cccnc3)CC3CCCN(C4CCCCC4)C3)c3ccccc32)c1 (centres unmarked) [Compound 4]
BINDING IL13 % Neutra at 100 μM [1]: 92.2%
IC50 [1]: 9.9 µM
BINDING IL6 % Neutra at 100 μM [2]: 5.2%
IC50 [3]: 21.3 µM
BINDING IL4 % Neutra at 100 μM [4]: 98.3%
IC50 [4]: 4 µM
Displacement EC50 TNFa in presence of compound: Difference [5]: Difference = 9 ng/ml
Displacement (%) [5]: 221%

Compound: O=S(=O)(c1ccccc1)n1cc(CN(Cc2ccncc2)CC2CCCN(C3CCCCC3)C2)c2ccccc21 (centres unmarked) [Compound 5]
BINDING IL13 % Neutra at 100 μM [1]: 84.9%
IC50 [1]: > 50 µM
BINDING IL6 % Neutra at 100 μM [2]: 2.1%
IC50 [3]: 11.1 µM
BINDING IL4 % Neutra at 100 μM [4]: 96.9%
IC50 [4]: 7.8 µM
Displacement EC50 TNFa in presence of compound: Difference [5]: 8.3 ng/mL
Displacement (%) [5]: 194%

Compound: CCCN(CCCCN(Cc1cccnc1F)Cc1cn(S(=O)(=O)c2ccccc2)c2ccccc12)C1CCCCC1 [Compound 67, N′-cyclohexyl-N^4-((2-fluoropyridin-3-yl)methyl)-N^4-((1-(phenylsulfonyl)-1H-indol-3-yl)methyl)-N′-propylbutane-1,4-diamine]
IC50 [3]: 6.7 µM
Displacement (%) [5]: 219%

Compound: CN(CCCCN(Cc1cccnc1F)Cc1cn(S(=O)(=O)c2ccccc2)c2ccccc12)C1CCCCCCC1 [Compound 76, N′-cyclooctyl-N^4-((2-fluoropyridin-3-yl)methyl)-N′-methyl-N^4-((1-(phenylsulfonyl)-1H-indol-3-yl)methyl)butane-1,4-diamine]
BINDING IL6 % Neutra at 100 μM [2]: 1%
IC50 [3]: 7.9 µM
BINDING IL4 % Neutra at 100 μM [4]: 92.8%
IC50 [4]: 4.6 µM
Displacement (%) [5]: 154%

Compound: CN(CCCCN(Cc1cccnc1F)Cc1cn(S(=O)(=O)N2CCCC2)c2ccccc12)C1CCCCC1 [Compound 110, N1-cyclohexyl-N4-((2-fluoropyridin-3-yl)methyl)-N1-methyl-N4-((1-(pyrrolidin-1-ylsulfonyl)-1H-indol-3-yl)methyl)butane-1,4-diamine]
IC50 [3]: 17 µM
Displacement (%) [5]: 83%

Compound: CN1CCN(S(=O)(=O)n2cc(CN(CCOCCN(C)C3CCCCC3)Cc3cccnc3F)c3ccccc32)CC1 [Compound 111, N-(2-(2-(((2-fluoropyridin-3-yl)methyl)((1-((4-methylpiperazin-1-yl)sulfonyl)-1H-indol-3-yl)methyl)amino)ethoxy)ethyl)-N-methylcyclohexanamine]
IC50 [3]: 6 µM
Displacement (%) [5]: 224%

Compound: CN(CCOCCN(Cc1cccnc1F)Cc1cn(S(=O)(=O)N2CCCCC2)c2ccccc12)C1CCCCC1 [Compound 112, N-(2-(2-(((2-fluoropyridin-3-yl)methyl) ((1-(piperidin-1-ylsulfonyl)-1H-indol-3-yl)methyl)amino)ethoxy)ethyl)-N-methylcyclohexanamine]
IC50 [3]: 13 µM
Displacement (%) [5]: 245%

The next lines start with the values.

IC50 [3]: 8.6 µM
Displacement (%) [5]: 109%
Compound: O=S(=O)(c1ccccc1)n1cc(CN(CCCCNC2CCCCC2)Cc2ccnc(F)c2)c2ccccc21 [Compound 44, N1-cyclohexyl-N4-((2-fluoropyridin-4-yl)methyl)-N4-((1-(phenylsulfonyl)-1H-indol-3-yl)methyl)butane-1,4-diamine]

IC50 [3]: 10.8 µM
Displacement (%) [5]: 124%
Compound: O=S(=O)(c1ccccc1)n1cc(CN(CCCCCNC2CCCCC2)Cc2cccnc2F)c2ccccc21 [Compound 46, N1-cyclohexyl-N5-((2-fluoropyridin-3-yl)methyl)-N5-((1-(phenylsulfonyl)-1H-indol-3-yl)methyl)pentane-1,5-diamine]

IC50 [3]: 7.8 µM
Displacement (%) [5]: 172%
Compound: O=S(=O)(c1ccccc1)n1cc(CN(CCCCNC2CCCCC2)Cc2ccc(F)nc2)c2ccccc21 [Compound 55, N1-cyclohexyl-N4-((6-fluoropyridin-3-yl)methyl)-N4-((1-(phenylsulfonyl)-1H-indol-3-yl)methyl)butane-1,4-diamine]

IC50 [3]: 9.4 µM
Displacement (%) [5]: 113%
Compound: CN(CCCCN(Cc1ccc(F)nc1)Cc1cn(S(=O)(=O)c2ccccc2)c2ccccc12)C1CCCCC1 [Compound 57, N1-cyclohexyl-N4-((6-fluoropyridin-3-yl)methyl)-N1-methyl-N4-((1-(phenylsulfonyl)-1H-indol-3-yl)methyl)butane-1,4-diamine]

IC50 [3]: 29.8 µM
Displacement (%) [5]: 64%
Compound: O=S(=O)(c1ccccc1)n1cc(CN(CCCCCNCc2ccnc(F)c2)Cc2ccnc(F)c2)c2ccccc21 [Compound 61]
